{
  "source": "patent US11219596B2",
  "about": "“Compositions and methods for ophthalmic and/or other applications” (The Johns Hopkins University, priority 2012, dated 2022)",
  "key": {"[1]": {"test_system": "vascular leakage after intravitreal injection of VEGF", "assay": "Rabbit VEGF-challenge model (fluorescein angiography)", "assay_type": "in vivo, Dutch belted rabbits", "conditions": "day 6; VEGF intravitreal on day 3; 5% axitinib-MPP 50 μL every 4 hours days 1-6, or one intravitreal Avastin on day 1", "description": "On day 3, the rabbits received an intravitreal injection of VEGF. On day 6, the rabbits were accessed for leakage via fluorescein angiography.\nIn this model, Dutch belted rabbits were given an intravitreal injection of VEGF to stimulate vascular growth. Fluorescein angiography was used to determine the degree to which the rabbits developed abnormal vascular and leakage."}, "[2]": {"assay_type": "in vitro ADME, human", "description": "The mobility of LE nanoparticles from the produced nanosuspensions in fresh undiluted human cervicovaginal mucus (CVM) was characterized by dark-field microscopy using a CytoViva® High Resolution Illumination System which allows visualization of fluorescent and non-fluorescent nano-sized objects. […] Mobility of particles in the movies was scored on a scale from 0 to 3 in order of increasing mobility, in a single-blind experiment by independent observers. The scoring criterion is as follows: 0-0.5 immobile; 0.51-1.5 slightly mobile; 1.51-2.5 moderately mobile; and 2.51-3.0 very mobile."}, "[3]": {"assay": "Multiple particle tracking of pyrene/stabilizer nanoparticles in CVM", "method": "Prior to quantifying mobility of the produced pyrene nanoparticles, their spatial distribution in the mucus sample was assessed by microscopy at low magnifications (10×, 40×).\nCVM was collected by inserting a Softcup® menstrual collection cup into the vaginal tract as described by the product literature for between 30 seconds and 2 minutes. After removal the CVM was then collected from the Softcup® by gentle centrifugation at ˜30×G to ˜120×G in a 50 mL centrifuge tube. In Example 1, CVM was used undiluted and fresh (stored for no longer than 7 days under refrigerated conditions). Barrier and transport of all CVM samples used in Example 1 were verified with negative (200 nm carboxylated polystyrene particles) and positive (200 nm polystyrene particles modified with PEG 5K) controls. In Example 2, CVM was lyophilized and reconstituted. In Example 2, mucus was frozen at −50° C. and then lyophilized to dryness. Samples were then stored at −50° C. Before use, the mucus was reconstituted by grinding the solid into a fine powder using a mortar and pestle followed by water addition to a final volume equal to the original volume to 2 times the original volume. The reconstituted mucus was then incubated at 4° C. for 12 hours and used as described in Example 2. Barrier and transport of all CVM samples used in Example 2 were verified with negative (200 nm carboxylated polystyrene particles) and positive (F127 coated 200 nm polystyrene particles) controls."}, "[4]": {"assay": "Multiple particle tracking of pyrene nanoparticles milled with PVAs and other surface-altering agents in CVM", "method": "An aqueous dispersion containing pyrene and one of the surface-altering agents listed above was stirred with milling media until particle size was reduced below 500 nm (as measured by dynamic light scattering).\nPrior to quantifying mobility of pyrene particles, their spatial distribution in the mucus sample was assessed visually."}, "[5]": {"conditions": "pyrene nanoparticles milled with the surface-altering agent, in CVM"}},
  "note": "Where two headings read alike, the source gives them in different places.",
  "data": [
    {"molecule": "Avastin®: positive control, one intravitreal injection; commonly used off-label to treat AMD", "values": [
      {"measurement": "retinal vessel growth and leakage (fluorescein angiography)", "setting": "[1]", "result": "no change in retinal vasculature"}
    ]},
    {"molecule": "Pluronic F68", "values": [
      {"measurement": "mobility score in CVM", "setting": "[2]", "result": "< 0.50"}
    ]},
    {"molecule": "Tyloxapol", "values": [
      {"measurement": "Sample (relative) <Vmean>rel", "setting": "[3]", "result": "−0.02"},
      {"measurement": "Sample <Vmean> (ensemble-average velocity)", "setting": "[3]", "result": 0.42, "unit": "um/s"},
      {"measurement": "Sample (relative) <Vmean>rel", "setting": "[4]", "result": "−0.02"},
      {"measurement": "Sample <Vmean>", "setting": "[4]", "result": 0.42, "unit": "um/s"}
    ]},
    {"molecule": "Pluronic F127", "values": [
      {"measurement": "mobility score in CVM", "setting": "[2]", "result": "> 2.51"}
    ]},
    {"molecule": "Pluronic P123", "values": [
      {"measurement": "mobility score in CVM", "setting": "[2]", "result": "1.51.-2.50"}
    ]},
    {"molecule": "Tween 80", "values": [
      {"measurement": "Sample (relative) <Vmean>rel", "setting": "[3]", "result": 0.17},
      {"measurement": "Sample <Vmean> (ensemble-average velocity)", "setting": "[3]", "result": 0.94, "unit": "um/s"},
      {"measurement": "Sample (relative) <Vmean>rel", "setting": "[4]", "result": 0.17},
      {"measurement": "Sample <Vmean>", "setting": "[4]", "result": 0.94, "unit": "um/s"}
    ]},
    {"molecule": "CCCCCCCCCCCCCCCC[N+](C)(C)C", "note": "[CTAB, Cetytrimethylammonium bromide]", "values": [
      {"measurement": "Sample <Vmean> (ensemble-average velocity)", "setting": "[3]; pyrene/stabilizer nanoparticles in CVM", "result": 0.32, "unit": "um/s"},
      {"measurement": "Sample (relative) <Vmean>rel", "setting": "[3]; pyrene/stabilizer nanoparticles in CVM, relative to negative and positive controls", "result": "−0.02"},
      {"measurement": "Sample (relative) <Vmean>rel", "setting": "[4]; [5]", "result": "−0.02"},
      {"measurement": "Sample <Vmean>", "setting": "[4]; [5]", "result": 0.32, "unit": "um/s"}
    ]}
  ]
}
